Entries after “also recorded” stand apart in the source; their conditions may differ.
Assays:
A375 tumors = assay: Intratumoral injection into A375 tumors in mice; assay type: in vivo
Description: Cy7.5-amine was intratumorally injected at the dose of 8 μg (equivalent to 50 μL of 200 μM Cy7.5-amine solution in PBS containing 2.5% DMSO. As control 50 μL of 2.5% DMSO in PBS solution was injected intratumorally. The blue dots indicate the days when the tumors were treated.
Then we applied Cy7.5-amine (FIG. 22C) by intratumoral injection into A375 tumors as described in FIG. 33.

Gram-positive strains = assay: MIC / MIC50 by broth microdilution in panel of Gram-positive strains; assay type: cell-based; details: MIC50 over all Gram-positive strains tested (Table 2)
Description: Antibacterial activity was assessed by determining the minimal inhibitory concentration (MIC) and the minimal bactericidal concentrations (MBC) and by monitoring time-dependent bacterial killing of exponentially growing cells. Bacterial cell suspensions (OD600≈0.02 in cation-adjusted Muller-Hinton Broth) were treated with increasing concentrations of the different molecules. The minimal inhibitory concentration (MIC) was defined as the minimal concentration of the molecule resulting in complete bacterial growth arrest. The minimal bactericidal concentration (MBC) was defined as the lowest concentration of the molecule that killed 99.9% of the inoculum. A molecule was determined to be bactericidal if the ratio of the MBC to the MIC was less than 4 to 6. […] In M. smegmatis, the antibacterial activity of charged pi-conjugated compounds was generally lower.
The MIC values for all Gram-positive strains tested (Table 2) were used to calculate the MIC50, i.e., the minimum inhibitory concentration needed to inhibit the growth of 50% of the tested isolates (FIG. 5A). […] When the average MIC50 values were evaluated, the most susceptible bacterial genera were Streptococcus sp., followed by Staphylococcus sp. In contrast, Propionibacterium sp. had the highest average MIC50 (FIG. 5B).
The broth microdilution method was used to determine the MIC of charged pi-conjugated compounds according to the CLSI guidelines. Charged pi-conjugated compound stock solutions (16 mM) were prepared in dimethyl sulfoxide (DMSO). Serial twofold dilutions of the charged pi-conjugated compounds were freshly prepared using the appropriate liquid media (Table 2), and 100 μL of each dilution was added to the appropriate wells of 96-well microtiter plates. The bacterial inoculum was further diluted in liquid media, and 100 μL was added to each well, resulting in a final cell density of ≈5×10^5 CFU mL^−1. […] A molecule was determined to be bactericidal if the ratio of the MBC to the MIC was less than 4 to 6. […]

[1] = system: A375 cancer cells (melanoma); assay: Crystal violet cytotoxicity test in A375 cells without light activation; assay type: cell-based, human
Description: The inhibitory concentration of charged pi-conjugated compounds needed to inhibit the cell growth by 50% (toxicity IC50).
Most of the charged pi-conjugated compounds are aminocyanines which are functionalized with alkyl amine group. The charged pi-conjugated compounds were added to cell cultures of A375 cancer cells (human melanoma) and their cytotoxicity was quantified by the crystal violet test and/or clonogenic assays for cell viability. […] The longer the exposure the most cytotoxic the charged pi-conjugated compounds are towards A375 cells. […] The same behavior is observed: the longer the exposure, the more cytotoxic. All molecules presented here are aminocyanines except GL-261-2 which is a carboxyl-cyanine. […] This was the first time a therapeutic window of concentration that can be tuned to selectively kill cancer and/or protect cells was suspected. In finding this therapeutic window concentration and time of exposure are important variables that should be fine tuned.
Based on the finding described above, a larger set of charged pi-conjugated compounds was evaluated for cytotoxicity against A375 cancer cells as shown in FIG. 25 and FIG. 26.
The IC50 is the concentration needed to inhibit the cell viability by 50%. These molecules in FIG. 25 and FIG. 26 were evaluated by crystal violet assay and using 2 days of exposure.

Q: Which “mice free of cancer” value (A375 tumors; after 7 months of the study) does the source give for `C[N+]1=C(/C=C/C2=CC(=C/C=C3/N(CCCCCC(=O)NCCCCCCN)c4ccc5ccccc5c4C3(C)C)/CCC2)C(C)(C)c2c1ccc1ccccc21.Cl.[Cl-]` [Cy7.5-amine, Cyanine 7.5-amine] here?
A: 2 out of 10

Q: What about the “loss of A375 tumors” value (A375 tumors; intratumoral 8 μg (50 μL of 200 μM), n=10 mice) of the same compound?
A: 20%

Q: And the “toxicity to the mice (body weight relative to control)” value (A375 tumors; intratumoral 200 μM, control 2.5% DMSO)?
A: no sign of toxicity; also recorded: does not cause change of the mice body weight

Q: What about the “antibacterial activity according to MIC50” value (Gram-positive strains) of the same compound?
A: strongest antibacterial activity

Q: What about the IC50 [1] of the same compound?
A: 500 nM

Q: What about the “cytotoxicity at short exposure” value [1] of the same compound?
A: safe and showed low cytotoxicity
